Reference: US10173991B2, “Sulfone amide linked benzothiazole inhibitors of endothelial lipase” (BRISTOL-MYERS SQUIBB COMPANY, priority 2014, dated 2019)

Molecular target: Endothelial lipase (EL) (Homo sapiens (Human), UniProt Q9Y5X9)
Test: Endothelial lipase (EL) enzymatic assay with fluorescent substrate A10070 in DMPG vesicles
Assay type: biochemical
Settings: not given
In short: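 Substrate A10070 sits in sonicated DMPG vesicles at 0.11 mole fraction. Lipase and compound preincubated 30 min, 37° C, in HEPES pH 8.0 buffer with CaCl2.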

Sequence of Endothelial lipase (EL) (Q9Y5X9 21-500): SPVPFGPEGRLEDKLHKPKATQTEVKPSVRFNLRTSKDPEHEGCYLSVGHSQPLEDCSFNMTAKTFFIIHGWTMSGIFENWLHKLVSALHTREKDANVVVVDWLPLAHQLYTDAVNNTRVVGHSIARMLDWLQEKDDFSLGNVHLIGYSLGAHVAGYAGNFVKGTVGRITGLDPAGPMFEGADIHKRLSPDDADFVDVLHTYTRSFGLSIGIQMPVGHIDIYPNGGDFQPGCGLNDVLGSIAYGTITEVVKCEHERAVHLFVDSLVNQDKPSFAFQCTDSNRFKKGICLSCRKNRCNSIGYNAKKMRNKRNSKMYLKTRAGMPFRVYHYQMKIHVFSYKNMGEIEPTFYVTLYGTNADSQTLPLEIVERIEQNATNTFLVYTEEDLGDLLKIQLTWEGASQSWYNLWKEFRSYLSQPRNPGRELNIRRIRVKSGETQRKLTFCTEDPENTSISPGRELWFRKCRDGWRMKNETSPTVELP

IC50	SMILES
1 nM	COCCS(=O)(=O)C(C(=O)NCC(=O)NCCOCc1ccccc1)c1nc2ccc(-c3ccc(F)nc3)cc2s1 (centres unmarked) [Example 377, N-({[2-(benzyloxy)ethyl]carbamoyl}methyl)-2-[6-(6-fluoropyridin-3-yl)-1,3-benzothiazol-2-yl]-2-(2-methoxyethane-sulfonyl)acetamide]
198 nM	COCCS(=O)(=O)C(C(=O)NCC(=O)NCC(F)(F)F)c1nc2ccc(-c3ccc(F)nc3)cc2s1 (centres unmarked) [Example 378, 2-[6-(6-fluoropyridin-3-yl)-1,3-benzothiazol-2-yl]-2-(2-methoxyethane-sulfonyl)-N-{[(2,2,2-trifluoroethyl)carbamoyl]methyl} acetamide]
108 nM	COCCNC(=O)CNC(=O)C(c1nc2ccc(-c3ccc(F)nc3)cc2s1)S(=O)(=O)CCOC (centres unmarked) [Example 379, 2-[6-(6-fluoropyridin-3-yl)-1,3-benzothiazol-2-yl]-2-(2-methoxyethane-sulfonyl)-N-{[(2-methoxyethyl)carbamoyl]methyl} acetamide]
1 nM	COCCS(=O)(=O)C(C(=O)NCC(=O)NCCOc1ccccc1)c1nc2ccc(-c3ccc(F)nc3)cc2s1 (centres unmarked) [Example 380, 2-[6-(6-fluoropyridin-3-yl)-1,3-benzothiazol-2-yl]-2-(2-methoxyethane-sulfonyl)-N-{[(2-phenoxyethyl)carbamoyl]methyl} acetamide]
15 nM	COCCS(=O)(=O)C(C(=O)NCC(=O)NC1(C)CC1)c1nc2ccc(-c3ccc(F)nc3)cc2s1 (centres unmarked) [Example 381, 2-[6-(6-fluoropyridin-3-yl)-1,3-benzothiazol-2-yl]-2-(2-methoxyethane-sulfonyl)-N-{[(1-methylcyclopropyl)carbamoyl]methyl} acetamide]
22 nM	COCCS(=O)(=O)C(C(=O)NCC(=O)NCC1CC1)c1nc2ccc(-c3ccc(F)nc3)cc2s1 (centres unmarked) [Example 382, N-{[(cyclopropyl-methyl)carbamoyl]methyl}-2-[6-(6-fluoropyridin-3-yl)-1,3-benzothiazol-2-yl]-2-(2-methoxyethane-sulfonyl)acetamide]
3 nM	COCCS(=O)(=O)C(C(=O)NCC(=O)Nc1ccccc1)c1nc2ccc(-c3ccc(F)nc3)cc2s1 (centres unmarked) [Example 383, 2-[6-(6-fluoropyridin-3-yl)-1,3-benzothiazol-2-yl]-2-(2-methoxyethane-sulfonyl)-N-[(phenyl-carbamoyl)methyl]acetamide]
13 nM	COCCS(=O)(=O)C(C(=O)NCC(=O)NC1COC1)c1nc2ccc(-c3ccc(F)nc3)cc2s1 (centres unmarked) [Example 384, 2-[6-(6-fluoropyridin-3-yl)-1,3-benzothiazol-2-yl]-2-(2-methoxyethane-sulfonyl)-N-{[(oxetan-3-yl)carbamoyl]methyl} acetamide]
13 nM	COCCS(=O)(=O)C(C(=O)NCC(=O)NC1CC1)c1nc2cc(-c3ccc(F)nc3)ccc2s1 (centres unmarked) [Example 385, N-[(cyclopropyl-carbamoyl)methyl]-2-[5-(6-fluoropyridin-3-yl)-1,3-benzothiazol-2-yl]-2-(2-methoxyethane-sulfonyl)acetamide]
25 nM	COCCS(=O)(=O)C(C(=O)NCC(=O)NC1COC1)c1nc2cc(-c3ccc(F)nc3)ccc2s1 (centres unmarked) [Example 386, 2-[5-(6-fluoropyridin-3-yl)-1,3-benzothiazol-2-yl]-2-(2-methoxyethane-sulfonyl)-N-{[(oxetan-3-yl)carbamoyl]methyl} acetamide]
48 nM	COCCS(=O)(=O)C(C(=O)NCC(=O)NC1(c2ccccn2)CC1)c1nc2ccc(-c3ccc(F)nc3)cc2s1 (centres unmarked) [Example 388, 2-[6-(6-fluoropyridin-3-yl)-1,3-benzothiazol-2-yl]-2-(2-methoxyethane-sulfonyl)-N-({[1-(pyridin-2-yl)cyclopropyl]carbamoyl}methyl) acetamide]

Further lines, the molecule ahead of its results:

SMILES	IC50
CC(C)OCCNC(=O)CNC(=O)C(c1nc2cc(-c3ccc(F)nc3)c(F)cc2s1)S(C)(=O)=O (centres unmarked) [Example 360, 2-[6-fluoro-5-(6-fluoropyridin-3-yl)-1,3-benzothiazol-2-yl]-2-methanesulfonyl-N-({[2-(propan-2-yloxy)ethyl]carbamoyl}methyl)acetamide]	21 nM
Cc1cc(-c2cc3nc(C(C(=O)NCC(=O)NC4CC4)S(C)(=O)=O)sc3cc2F)cnn1 (centres unmarked) [Example 361, N-[(cyclopropyl-carbamoyl)methyl]-2-[6-fluoro-5-(6-methylpyridazin-4-yl)-1,3-benzothiazol-2-yl]-2-methanesulfonyl-acetamide]	26 nM
Cc1cc(-c2cc3nc(C(C(=O)NCC(=O)NCCOC(C)C)S(C)(=O)=O)sc3cc2F)cnn1 (centres unmarked) [Example 362, 2-[6-fluoro-5-(6-methylpyridazin-4-yl)-1,3-benzothiazol-2-yl]-2-methanesulfonyl-N-({[2-(propan-2-yloxy)ethyl]carbamoyl}methyl)acetamide]	25 nM
COC(=O)Nc1ccc(-c2cc3nc(C(C(=O)NCC(=O)NCCOC(C)C)S(C)(=O)=O)sc3cc2F)cc1F (centres unmarked) [Example 363, methyl N-[2-fluoro-4-(6-fluoro-2-{methanesulfonyl [({[2-(propan-2-yloxy)ethyl]carbamoyl}methyl)carbamoyl]methyl}-1,3-benzothiazol-5-yl)phenyl]carbamate]	11 nM
COc1cc(-c2cc3nc(C(C(=O)NCC(=O)NC4CC4)S(C)(=O)=O)sc3cc2F)ccn1 (centres unmarked) [Example 364, N-[(cyclopropyl-carbamoyl)methyl]-2-[6-fluoro-5-(2-methoxypyridin-4-yl)-1,3-benzothiazol-2-yl]-2-methanesulfonyl-acetamide]	12 nM
CS(=O)(=O)C(C(=O)NCC(=O)NC1CC1)c1nc2cc(-c3ccc4c(c3)NC(=O)C4)c(F)cc2s1 (centres unmarked) [Example 365, N-[(cyclopropyl-carbamoyl)methyl]-2-[6-fluoro-5-(2-oxo-2,3-dihydro-1H-indol-6-yl)-1,3-benzothiazol-2-yl]-2-methanesulfonyl-acetamide]	36 nM
COc1ccc(-c2cc3nc(C(C(=O)NCC(=O)NC4CC4)S(C)(=O)=O)sc3cc2F)cn1 (centres unmarked) [Example 366, N-[(cyclopropyl-carbamoyl)methyl]-2-[6-fluoro-5-(6-methoxypyridin-3-yl)-1,3-benzothiazol-2-yl]-2-methanesulfonyl-acetamide]	30 nM
CS(=O)(=O)C(C(=O)NCC(=O)NC1CC1)c1nc2cc(-c3cccnc3F)c(F)cc2s1 (centres unmarked) [Example 367, N-[(cyclopropyl-carbamoyl)methyl]-2-[6-fluoro-5-(2-fluoropyridin-3-yl)-1,3-benzothiazol-2-yl]-2-methanesulfonyl-acetamide]	25 nM
COc1nccc(-c2cc3nc(C(C(=O)NCC(=O)NC4CC4)S(C)(=O)=O)sc3cc2F)c1F (centres unmarked) [Example 368, N-[(cyclopropyl-carbamoyl)methyl]-2-[6-fluoro-5-(3-fluoro-2-methoxypyridin-4-yl)-1,3-benzothiazol-2-yl]-2-methanesulfonyl-acetamide]	17 nM
Cn1cnc2ccc(-c3cc4sc(C(C(=O)NCC(=O)NC5CC5)S(C)(=O)=O)nc4cc3F)cc21 (centres unmarked) [Example 369, N-[(cyclopropyl-carbamoyl)methyl]-2-[5-fluoro-6-(1-methyl-1H-1,3-benzodiazol-6-yl)-1,3-benzothiazol-2-yl]-2-methanesulfonyl-acetamide]	16 nM
CS(=O)(=O)C(C(=O)NCC(=O)NC1CC1)c1nc2cc(F)c(-c3ccc4c(c3)CC(=O)N4)cc2s1 (centres unmarked) [Example 370, N-[(cyclopropyl-carbamoyl)methyl]-2-[5-fluoro-6-(2-oxo-2,3-dihydro-1H-indol-5-yl)-1,3-benzothiazol-2-yl]-2-methanesulfonyl-acetamide]	5 nM
CS(=O)(=O)C(C(=O)NCC(=O)NC1CC1)c1nc2cc(F)c(-c3cccc4c3CC(=O)N4)cc2s1 (centres unmarked) [Example 371, N-[(cyclopropyl-carbamoyl)methyl]-2-[5-fluoro-6-(2-oxo-2,3-dihydro-1H-indol-4-yl)-1,3-benzothiazol-2-yl]-2-methanesulfonyl-acetamide]	5 nM
CS(=O)(=O)C(C(=O)NCC(=O)NC1CC1)c1nc2cc(F)c(-c3ccc4c(c3)NC(=O)C4)cc2s1 (centres unmarked) [Example 372, N-[(cyclopropyl-carbamoyl)methyl]-2-[5-fluoro-6-(2-oxo-2,3-dihydro-1H-indol-6-yl)-1,3-benzothiazol-2-yl]-2-methanesulfonyl-acetamide]	6 nM
CS(=O)(=O)C(C(=O)NCC(=O)NC1CC1)c1nc2ccc(-c3ccc(-n4cccn4)cc3)cc2s1 (centres unmarked) [Example 373, N-[(cyclopropyl-carbamoyl)methyl]-2-methanesulfonyl-2-{6-[4-(1H-pyrazol-1-yl)phenyl]-1,3-benzothiazol-2-yl}acetamide]	2 nM
CN1C(=O)Cc2cc(-c3cc4sc(C(C(=O)NCC(=O)NC5CC5)S(C)(=O)=O)nc4cc3F)ccc21 (centres unmarked) [Example 374, N-[(cyclopropyl-carbamoyl)methyl]-2-[5-fluoro-6-(1-methyl-2-oxo-2,3-dihydro-1H-indol-5-yl)-1,3-benzothiazol-2-yl]-2-methanesulfonyl-acetamide]	9 nM
CS(=O)(=O)C(C(=O)NCC(=O)NC1CC1)c1nc2cc(F)c(-c3ccc(-n4cccn4)cc3)cc2s1 (centres unmarked) [Example 375, N-[(cyclopropyl-carbamoyl)methyl]-2-{5-fluoro-6-[4-(1H-pyrazol-1-yl)phenyl]-1,3-benzothiazol-2-yl}-2-methanesulfonyl-acetamide]	2 nM
COCCS(=O)(=O)C(C(=O)NCC(=O)NC1(C)CCC1)c1nc2cc(-c3ccc(F)nc3)ccc2s1 (centres unmarked) [Example 387, 2-[5-(6-fluoropyridin-3-yl)-1,3-benzothiazol-2-yl]-2-(2-methoxyethane-sulfonyl)-N-{[(1-methylcyclobutyl)carbamoyl]methyl} acetamide]	28 nM

Same assay, conditions: EL from conditioned media of HT-1080 cells; 30 min preincubation at 37° C.

IC50	SMILES
4 nM	COCCS(=O)(=O)C(C(=O)NCC(=O)NC1CC1)c1nc2ccc(-c3ccc(F)nc3)cc2s1 (centres unmarked) [Example 376, N-[(Cyclopropylcarbamoyl)methyl]-2-[6-(6-fluoropyridin-3-yl)-1,3-benzothiazol-2-yl]-2-(2-methoxyethanesulfonyl)acetamide]
